Measured values: patent US20240117405A1, “COLORIMETRIC BIOSENSOR, PREPARATION METHOD THEREOF, AND ANTIBIOTIC SUSCEPTIBILITY TESTING METHOD USING THE SAME” (INHA UNIVERSITY RESEARCH AND BUSINESS FOUNDATION, priority 2022, published 2024)

System: methicillin-resistant Staphylococcus Aureus (MRSA)
Assay: Antibiotic susceptibility test using encapsulated colorimetric biosensor
Assay type: cell-based
Conditions: MRSA 10^6 CFU/mL, 37° C.; for time until color change (blue->red) of the colorimetric biosensor: photographed up to 15 hours
Procedure: An antibiotic susceptibility test was performed on the colorimetric biosensor in encapsulated form prepared in Example 1, and the results are shown in FIG. 5.
Specifically, an encapsulated colorimetric biosensor was prepared from Example 1 and introduced into wells containing 2 and 4 μg/mL of ampicillin antibiotics (See FIGS. 5B and 5C) and 0.25, 2 and 4 μg/mL of vancomycin antibiotics (See FIGS. 5D, 5E, and 5F). Further, for the antibiotic susceptibility test, methicillin-resistant Staphylococcus Aureus (MRSA) bacteria, which are resistant to ampicillin and susceptible to vancomycin, were injected into each well at an amount of 10^6 CFU/mL. For comparative experiments, wells containing only the colorimetric biosensor and bacteria (See FIG. 5A) and wells containing only the colorimetric biosensor (See FIG. 5G) were also prepared. In order to induce the growth of MRSA and the color change of the biosensor accordingly, they were cultured at a temperature of 37° C., and each well plate was photographed at 0, 5, 6, 7, 9, 12, 13 and 15 hours to compare the color change.

SMILES	time until color change (blue->red) of the colorimetric biosensor (2 μg/mL antibiotic)	time until color change (blue->red) of the colorimetric biosensor (4 μg/mL antibiotic)	susceptibility or resistance of MRSA to the antibiotic as determined by biosensor color change	time until color change (blue->red) of the colorimetric biosensor (0.25 μg/mL antibiotic)	concentration from which MRSA shows susceptibility (no color change) (tested 0.25, 2 and 4 μg/mL)
CC1(C)S[C@@H]2[C@H](NC(=O)[C@H](N)c3ccccc3)C(=O)N2[C@H]1C(=O)O [ampicillin]	9 h	13 h	resistance	–	–
CN[C@H](CC(C)C)C(=O)N[C@H]1C(=O)N[C@@H](CC(N)=O)C(=O)N[C@H]2C(=O)N[C@H]3C(=O)N[C@H](C(=O)N[C@H](C(=O)O)c4cc(O)cc(O)c4-c4cc3ccc4O)[C@H](O)c3ccc(c(Cl)c3)Oc3cc2cc(c3O[C@@H]2O[C@H](CO)[C@@H](O)[C@H](O)[C@H]2O[C@H]2C[C@](C)(N)[C@H](O)[C@H](C)O2)Oc2ccc(cc2Cl)[C@H]1O [vancomycin]	no color change was observed	no color change was observed	susceptibility	9 h	2 µg/mL
